From paper PMC8119466, “A screen of FDA-approved drugs identifies inhibitors of protein tyrosine phosphatase 4A3 (PTP4A3 or PRL-3)” (Scientific Reports, 2021)
Where a name gives a salt, the structure may show the parent alone. Read-outs that look alike come from different tables or passages of the source.

Experiments:
Type in all cases: biochemical
recombinant PRL-3 = target: T1, recombinant PRL-3 (Homo sapiens, UniProt O75365); assay: In vitro phosphatase assay (DiFMUP hydrolysis), PRL-3; also: test concentration or dose not given here
T1 construct: 6xHis (N, cleaved yes); made in house; host or cells: E. coli One Shot BL21 Star

recombinant PRL-2 = target: T2, recombinant PRL-2 (Homo sapiens, UniProt Q12974); assay: In vitro phosphatase assay (DiFMUP hydrolysis), PRL-2;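 also: PRL-2 activity read as DiFMUP hydrolysis after 20 min at room temperature with drug, enzyme first pre-reduced at 4 °C for 20 min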
T2 construct: 6xHis (N, cleaved yes); made in house; host or cells: E. coli One Shot BL21 Star
T2 sequence (Q12974 1-167): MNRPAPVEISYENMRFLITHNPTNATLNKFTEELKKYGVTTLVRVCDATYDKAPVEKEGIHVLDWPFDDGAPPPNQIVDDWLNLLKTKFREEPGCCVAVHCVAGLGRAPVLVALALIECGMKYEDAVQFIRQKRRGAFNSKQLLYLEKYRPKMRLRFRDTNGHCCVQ

recombinant PRL-1 = target: T3, recombinant PRL-1 (Homo sapiens, UniProt Q93096); assay: In vitro phosphatase assay (DiFMUP hydrolysis), PRL-1; also: test concentration or dose not given here
T3 construct: 6xHis (N, cleaved yes); made in house; host or cells: E. coli One Shot BL21 Star
T3 sequence (Q93096 1-173): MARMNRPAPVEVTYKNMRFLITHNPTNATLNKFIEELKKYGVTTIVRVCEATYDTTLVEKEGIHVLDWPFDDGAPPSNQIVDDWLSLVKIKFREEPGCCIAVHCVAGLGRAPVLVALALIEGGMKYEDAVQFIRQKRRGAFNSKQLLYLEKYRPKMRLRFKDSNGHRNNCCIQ

[1] = FDA-approved drug screen, compared to DMSO
[2] = FDA-approved drug screen, activity compared to DMSO

T1 sequence (O75365 whole entry): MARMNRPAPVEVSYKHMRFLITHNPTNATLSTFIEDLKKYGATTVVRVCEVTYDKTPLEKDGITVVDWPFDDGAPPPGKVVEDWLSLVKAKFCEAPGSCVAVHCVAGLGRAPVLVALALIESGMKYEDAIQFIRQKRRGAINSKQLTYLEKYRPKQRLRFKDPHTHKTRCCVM

| Molecule | % Phosphatase Activity (compared to DMSO) PRL-3 (recombinant PRL-3; [1]) | % Phosphatase Activity (compared to DMSO) PRL-2 (recombinant PRL-2; [1]) | % Phosphatase Activity (compared to DMSO) PRL-1 (recombinant PRL-1; [1]) | other results |
| --- | --- | --- | --- | --- |
| CC1=C(C(=O)OC(C)C)C(c2cccc([N+](=O)[O-])c2)C(C(=O)OC2CN(C(c3ccccc3)c3ccccc3)C2)=C(N)N1 (stereo not drawn) [Azelnidipine] | 95% | 99% | 93% |  |
| Nc1nc(CC(=O)Nc2ccc(CCNC[C@H](O)c3ccccc3)cc2)cs1 [Mirabegron] | 88% | 113% | 104% |  |
| O=C(O[C@H]1C[N+]2(CCCOc3ccccc3)CCC1CC2)C(O)(c1cccs1)c1cccs1 [Aclidinium Bromide] |  |  |  | % Phosphatase Activity (compared to DMSO) PRL-3 (recombinant PRL-3): 90%; % Phosphatase Activity (compared to DMSO) PRL-2 (recombinant PRL-2): 117%; % Phosphatase Activity (compared to DMSO) PRL-1 (recombinant PRL-1): 106% |
| CC(=O)Nc1ccccc1 [Acetanilide] | 81% | 110% | 110% |  |
| CO/N=C(\C(=O)N[C@@H]1C(=O)N2C(C(=O)O)=C(CSc3nnnn3C)CS[C@H]12)c1csc(N)n1.CO/N=C(\C(=O)N[C@@H]1C(=O)N2C(C(=O)O)=C(CSc3nnnn3C)CS[C@H]12)c1csc(N)n1.Cl [Cefmenoxime hydrochloride] | 84% | 98% | 92% |  |
| CCc1c(Cl)c(O)c(Cl)c(O)c1C(=O)O[C@H]1[C@H](O)[C@H](OC)[C@H](OC/C2=C\C=C\C[C@H](O)/C(C)=C/[C@H](CC)[C@@H](O[C@@H]3OC(C)(C)[C@@H](OC(=O)C(C)C)[C@H](O)[C@@H]3O)/C(C)=C/C(C)=C/C[C@@H]([C@@H](C)O)OC2=O)O[C@@H]1C [Fidaxomicin] | 62% | 63% | 85% |  |
| CC(c1cc2ccccc2s1)N(O)C(N)=O (stereo not drawn) [Zileuton] |  |  |  | % Phosphatase Activity (compared to DMSO) PRL-3 (recombinant PRL-3; [2]): 87%; % Phosphatase Activity (compared to DMSO) PRL-2 (recombinant PRL-2; [2]): 86%; % Phosphatase Activity (compared to DMSO) PRL-1 (recombinant PRL-1; [2]): 96% |
| C[C@]12CC[C@H]3[C@@H](CC[C@@]45O[C@@H]4C(O)=C(C#N)C[C@]35C)[C@@H]1CC[C@@H]2O [Trilostane] |  |  |  | % Phosphatase Activity (compared to DMSO) PRL-3 (recombinant PRL-3; [2]): 88%; % Phosphatase Activity (compared to DMSO) PRL-2 (recombinant PRL-2; [2]): 110%; % Phosphatase Activity (compared to DMSO) PRL-1 (recombinant PRL-1; [2]): 97% |
| Nc1nc(N)nc(-c2cc(Cl)ccc2Cl)n1 [Irsogladine] | 81% | 106% | 84% |  |
| C[C@]1(c2nc3c(C(N)=O)cccc3[nH]2)CCCN1 [Veliparib (ABT-888)] |  |  |  | % Phosphatase Activity (compared to DMSO) PRL-3 (recombinant PRL-3; [2]): 83%; % Phosphatase Activity (compared to DMSO) PRL-2 (recombinant PRL-2; [2]): 99%; % Phosphatase Activity (compared to DMSO) PRL-1 (recombinant PRL-1; [2]): 108% |
| O=C1CN(/N=C/c2ccc([N+](=O)[O-])o2)C(=O)N1 [Nitrofurantoin] |  |  |  | % Phosphatase Activity (compared to DMSO) PRL-3 (recombinant PRL-3): 67%; % Phosphatase Activity (compared to DMSO) PRL-2 (recombinant PRL-2): 63%; % Phosphatase Activity (compared to DMSO) PRL-1 (recombinant PRL-1): 76% |
| Nc1nc(NC2CC2)c2ncn([C@H]3C=C[C@@H](CO)C3)c2n1 [Abacavir sulfate] | 111% | 85% | 88% |  |
| CC1(O)CCC(C(C)(C)O)CC1.O (stereo not drawn) [Terpin (hydrate)] |  |  |  | % Phosphatase Activity (compared to DMSO) PRL-3 (recombinant PRL-3; [2]): 80%; % Phosphatase Activity (compared to DMSO) PRL-2 (recombinant PRL-2; [2]): 92%; % Phosphatase Activity (compared to DMSO) PRL-1 (recombinant PRL-1; [2]): 88% |
| CO[C@H]1/C=C/O[C@@]2(C)Oc3c(C)c(O)c4c(O)c(c5c(nc6cc(C)ccn65)c4c3C2=O)NC(=O)/C(C)=C\C=C\[C@H](C)[C@H](O)[C@@H](C)[C@@H](O)[C@@H](C)[C@H](OC(C)=O)[C@@H]1C [Rifaximin] | 79% | 60% | 64% |  |
| NS(=O)(=O)NCCNc1nonc1/C(=N/O)Nc1ccc(F)c(Br)c1 [Epacadostat (INCB024360)] | 95% | 98% | 111% |  |
| C[C@H](CCC(=O)O)[C@H]1CC[C@H]2[C@@H]3[C@@H](O)C[C@@H]4C[C@H](O)CC[C@]4(C)[C@H]3CC[C@]12C [Ursodiol] |  |  |  | % Phosphatase Activity (compared to DMSO) PRL-3 (recombinant PRL-3; [2]): 77%; % Phosphatase Activity (compared to DMSO) PRL-2 (recombinant PRL-2; [2]): 79%; % Phosphatase Activity (compared to DMSO) PRL-1 (recombinant PRL-1; [2]): 96% |
| CC(C)CN(C[C@@H](O)[C@H](Cc1ccccc1)NC(=O)O[C@H]1CO[C@H]2OCC[C@H]21)S(=O)(=O)c1ccc(N)cc1.CCO [Darunavir Ethanolate] | 80% | 81% | 99% |  |
| CN(C)C(=O)C(CCN1CCC(O)(c2ccc(Cl)cc2)CC1)(c1ccccc1)c1ccccc1 [Loperamide HCl] | 81% | 99% | 105% |  |

| Molecule | % Phosphatase Activity (compared to DMSO) PRL-3 (recombinant PRL-3; [1]) | % Phosphatase Activity (compared to DMSO) PRL-2 (recombinant PRL-2; [1]) | % Phosphatase Activity (compared to DMSO) PRL-1 (recombinant PRL-1; [1]) | other results |
| --- | --- | --- | --- | --- |
| O=C1CCc2ccc(OCCCCN3CCN(c4cccc(Cl)c4Cl)CC3)cc2N1 [Aripiprazole] | 103% | 111% | 100% |  |
| CCCCNC(=O)NS(=O)(=O)c1ccc(C)cc1 [Tolbutamide] |  |  |  | % Phosphatase Activity (compared to DMSO) PRL-3 (recombinant PRL-3; [2]): 91%; % Phosphatase Activity (compared to DMSO) PRL-2 (recombinant PRL-2; [2]): 119%; % Phosphatase Activity (compared to DMSO) PRL-1 (recombinant PRL-1; [2]): 104% |
| CN1C(CCl)Nc2cc(Cl)c(S(N)(=O)=O)cc2S1(=O)=O (stereo not drawn) [Methyclothiazide] | 62% | 114% | 100% |  |
| Nc1ccn([C@@H]2O[C@H](CO)[C@@H](O)[C@@H]2O)c(=O)n1 [Cytarabine] | 91% | 86% | 104% |  |
| Nc1nc(F)nc2c1ncn2[C@@H]1O[C@H](CO)[C@@H](O)[C@@H]1O [Fludarabine] | 94% | 119% | 110% |  |
| Cc1cc(C2CCCCC2)n(O)c(=O)c1.NCCO [Ciclopirox ethanolamine] | 83% | 109% | 106% |  |
| CC1=C(C(=O)O)N2C(=O)[C@@H](NC(=O)[C@H](N)c3ccccc3)[C@H]2SC1 [Cephalexin] | 98% | 81% | 98% |  |
| O=C(O)C(=O)O.[NH-][C@@H]1CCCC[C@H]1[NH-].[Pt+2] [Oxaliplatin] | 76% | 97% | 92% |  |
| CN(C)c1ccc2nc3ccc(=[N+](C)C)cc-3sc2c1 [Methylene Blue] | 45% | 72% | 55% |  |
| Nc1ccn([C@@H]2CS[C@H](CO)O2)c(=O)n1 [Lamivudine] | 92% | 113% | 104% |  |
| CCC(=O)OCC(=O)[C@@]1(OC(=O)CC)[C@@H](C)C[C@H]2[C@@H]3CCC4=CC(=O)C=C[C@]4(C)[C@@]3(Cl)[C@@H](O)C[C@@]21C [Beclomethasone dipropionate] | 90% | 91% | 98% |  |
| CC1CC(OC(=O)C(O)c2ccccc2)CC(C)(C)C1 (stereo not drawn) [Cyclandelate] | 74% | 84% | 82% |  |
| COC(=O)N[C@H](C(=O)N1CCC[C@H]1c1ncc(-c2ccc(-c3ccc(-c4cnc([C@@H]5CCCN5C(=O)[C@@H](NC(=O)OC)C(C)C)[nH]4)cc3)cc2)[nH]1)C(C)C [Daclatasvir (BMS-790052)] | 236% | 324% | 320% |  |
| CCOc1cc([C@@H](CS(C)(=O)=O)N2C(=O)c3cccc(NC(C)=O)c3C2=O)ccc1OC [Apremilast (CC-10004)] | 86% | 78% | 100% |  |
| C=CC(=O)Nc1cccc(Oc2nc(Nc3ccc(N4CCN(C)CC4)cc3)nc3ccsc23)c1 [Olmutinib (HM61713, BI 1482694)] | 94% | 87% | 90% |  |
| C[C@H]1O[C@H](O[C@H]2[C@H](O)[C@@H](O)[C@@H](O[C@H]3[C@H](O)[C@@H](O)C(O)O[C@@H]3CO)O[C@@H]2CO)[C@H](O)[C@@H](O)[C@@H]1N[C@H]1C=C(CO)[C@@H](O)[C@H](O)[C@H]1O (stereo partly drawn) [Acarbose] | 73% | 102% | 94% |  |
| Eptifibatide Acetate | 91% | 82% | 88% |  |
| O=C(O)CCNC(=O)c1ccccc1 [Betamipron] | 75% | 95% | 98% |  |
